According to patent US6593144B2, “Magnetic resonance imaging using hyperpolarized noble gases” (The Trustees of Princeton University, priority 1994, dated 2003):
Several values for one entry are separate records, joined by “and”; a condition that tells them apart may be missing. Equal entries are not always repeated. Where two headings read alike, the source gives them in different places.

How the values were obtained:
[1] = cited from earlier work
[2] = inhaled, mouse; cited from earlier work
[3] = brain, cited from earlier work
[4] = 30° C., 0.5 atm, cited from earlier work
[5] = inhaled, humans; cited from earlier work
[6] = cited from earlier work; remark: listed apart in the source
[7] = Relaxivity of O2 toward 129Xe and T1 estimates derived from it; type: physicochemical; details: for T1: absence of other relaxers
Source text: It is known that ^129Xe, which has a long longitudinal relaxation time in the gas phase, can be relaxed by magnetic dipole-dipole interaction and/or Fermi-Contact interaction with the unpaired electron spins of dioxygen. (Reference 18). The solubility of Xenon (and also of dioxygen) in water is low. Due to the low sensitivity of the ^129Xe signal, the time required for determining the relaxivity of O2 toward ^129Xe with a series of T1 determinations over a range of O2 concentrations in water would be prohibitively long.
The relaxivity of O2 toward ^129Xe has been measured in only one liquid, i.e., octanol, which models an amphipathic membrane lipid. (Reference 17). The observed relaxivity, 0.029 s^−1mM^−1, is about three times larger than that estimated from previous reports for gas-phase relaxation, i.e., (Reference 18), 0.0087 s^−1mM^−1, as might be expected for encounters in the condensed phase. The dioxygen relaxivity for ^129Xe is constant over the concentration range studied, and thus 1/T1 will be a linear function of O2 concentration over the entire physiological range (0-0.2 atm, 0-0.2 mM). This translates into a T1 value of 18 s in air-saturated lipid, and 80 s in anaerobic lipid, in the absence of other relaxers. This is the first reported value for the O2 relaxivity toward ^129Xe in a condensed phase. T2values over these O2 concentrations have been determined to range from 0.5 to 5.0 s. […] In fact, given the relative inefficiency of the known non-paramagnetic relaxation mechanisms, it is suspected that T1 in many tissues will not fall below seconds or even tens of seconds.
This estimate of T1≈38 s for ^129Xe dissolved in rat blood at 293° K is very encouraging. […] One can also estimate T1 values for other model systems. The T1 of ^129Xe in water has been measured at 300° K to be 130 s. […] While the actual values of T1 in each tissue must be, and remain to be, determined, it is expected that the minimum value will fall above 15 s, a duration sufficient to enable significant accumulation of polarized ^129Xe in major tissues. […]

[8] = dissolved in rat blood, 293° K, data obtained over 12 hr; cited from earlier work
[9] = cited from earlier work; remark: listed apart in the source
[10] = myoglobin (aqueous Fe(III) metmyoglobin)

In the case of `O=O` [O2, dioxygen], the “relaxivity of O2 toward 129Xe” value ([1]; gas phase, estimated from previous reports) is listed as 0.0087 s⁻¹ mM⁻¹ and the “relaxivity of O2 toward 129Xe” value ([1]; octanol, 300° K) is listed as 0.029 s⁻¹ mM⁻¹.

For `[Xe]` [Xenon], the “time to reach a steady state with the entire blood volume (one blood circuit)” value [2] is given as “about 1 s”, the “steady-state concentration bound to proteins” value ([3]; 0.5-1.0 atm lung Xenon) is given as 1 to 5 mM and the “steady-state concentration in the membrane bilayers” value ([3]; 0.5-1.0 atm lung Xenon) is given as 5 to 10 mM. For the same molecule, the “steady-state concentration in water” value ([3]; 0.5-1.0 atm lung Xenon) was 2 to 4 mM, the “solubility in white matter versus gray matter” value [3] was “approximately twice as soluble in white matter as in gray matter” and the “solubility of Xenon in octanol” value ([4]; octanol) was 48 mM. The “solubility of Xenon in water” value ([4]; water) was 2.4 mM, the “time to reach a steady state with the entire blood volume (one blood circuit)” value [5] was “about 18 s” and the metabolism ([6]; by the body) was “not metabolized by the body”. For the same molecule, the “period of recovery from the exhaled breath” value ([6]; human subjects) was roughly 20 min.

With `[129Xe]` [^129Xe, Xenon-129] the T1 ([7]; air-saturated lipid) was 18 s, the T1 ([7]; anaerobic lipid) was 80 s and the “estimated T1” value ([7]; fully oxygenated membranes) was greater than 15 s. For the same molecule, the T1 [8] was 38 s and ≈ 38 s, the T2 ([1]; octanol, over O2 concentrations 0-0.2 atm) was 0.5 to 5.0 s and the T1 ([9]; 10% Fe(III) metMb) was 0.005 s. The T1 ([9]; benzene, 9.4 T and 300° K, Diehl and Jokisaari) was 155.0 ± 6.2 s, the T1 ([9]; benzene, 300° K) was 160 s and 160.5 s and the T1 ([9]; benzene, Moschos and Reisse) was 240 s. For the same molecule, the T2 ([9]; benzene) was 0.88 s, the T1 [9, 10] was 0.0052 s and the T2 [9, 10] was 0.00057 s. For the same molecule, the T1 ([9]; octanol) was 80 s and 78.5 s, the T2 ([9]; octanol) was 5.3 s and the T2 ([9]; pure gas phase, 1 atm) was “≦56 hrs”. The T1 ([9]; pure gas phase, practically) was “at least 3000 s”, the T1 ([9]; water) was 130 s and 131.3 s and the T2 ([9]; water) was 5.3 s.
